Measurements as given in patent US7361686B2, “Compounds for the treatment of metabolic disorders” (Wellstat Therapeutics Corporation, priority 2003, dated 2008).

Test system: db/db mice
Experiment: Antidiabetic effects in db/db mice (serum chemistry after 4 weeks of daily oral dosing)
Assay type: in vivo
Conditions: for blood glucose, effect in words: versus vehicle; for Triglycerides ± SEM (serum) / Glucose ± SEM (serum glucose) / Free Fatty Acids ± SEM (serum): male obese db/db mice, 100 mg/kg daily oral, treatment for 4 weeks, mean ± SEM; for Triglycerides ± SEM (serum): vehicle 621 ± 54, lean 96.4 ± 6.4; for Glucose ± SEM (serum glucose): vehicle 747 ± 19, lean control 193 ± 11; for Free Fatty Acids ± SEM (serum): vehicle 2415 ± 134, lean 1637 ± 105
Source text: Db/db mice have a defect in leptin signaling, leading to hyperphagia, obesity and diabetes. Moreover, unlike ob/ob mice on a C57BL/6J background, db/db mice on a C57BLKS background undergo failure of their insulin-producing pancreatic islet cells, resulting in progression from hyperinsulinemia (associated with peripheral insulin resistance) to hypoinsulinemic diabetes.
Male obese (db/db homozygote) C57B/Ksola mice approximately 8 weeks of age, were obtained from Jackson Labs (Bar Harbor, Me.) and randomly assigned into groups of 5-7 animals such that the body weights (40-45 g) and serum glucose levels (≧300 mg/dl in fed state) were similar between groups; male lean (db/+heterozygote) mice served as cohort controls. A minimum of 7 days was allowed for adaptation after arrival. All animals were maintained under controlled temperature (23° C.), relative humidity (50±5%) and light (7:00-19:00), and allowed free access to standard chow (Formulab Diet 5008, Quality Lab Products, Elkridge, Md.) and water.
Treatment cohorts were given daily oral doses of vehicle, compound CO (100 mg/kg), or Compound CP (100 mg/kg) for 4 weeks. At the end of the treatment period 100 μl of venous blood was withdrawn in a heparinized capillary tube from the retro-orbital sinus for serum chemistry analysis.

[1] = db/db mice, after 4 weeks of daily oral dosing, 100 mg/kg
[2] = db/db mice, after 4 weeks of daily oral dosing, 100 mg/kg, versus vehicle-treated db/db mice

Row | Structure (SMILES) | blood glucose, effect in words [1] | serum triglycerides, effect in words [2] | Triglycerides ± SEM (serum) | Glucose ± SEM (serum glucose) | Free Fatty Acids ± SEM (serum) | serum free fatty acids, effect in words [2]
1 | CCOC(=O)CC/C=C/c1cccc(OCc2c(C)cccc2C)c1 [Cpd. CO, 5-[3-(2,6-Dimethylbenzyloxy)-phenyl]-pent-4-enoic acid ethyl ester] | significant reduction | reduced | 320 ± 30 mg/dL | 651 ± 36 mg/dL | 2689 ± 70 µM | 
2 | CCOC(=O)CCC/C=C/c1cccc(OCc2c(C)cccc2C)c1 [Cpd. CP, 6-[3-(2,6-Dimethylbenzyloxy)-phenyl]-hex-5-enoic acid ethyl ester] | significant reduction | reduced | 150 ± 34 mg/dL | 404 ± 101 mg/dL | 1765 ± 39 µM | reduced
